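In this assay, cells in 96-well plates receive the compound at five concentrations for 48 hours. Endpoints are linearly interpolated between the surrounding concentrations. GI50 marks 50% less growth.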 Calls of active or inactive are those of the source. No stated cut-off is given here; in the data, active = GI50 up to about 1.1 µM and inactive = higher.
How the values were obtained:
Experiment in all cases: NCI anticancer screen, dose series, 48 h
NCI-H460 = tested on: NCI-H460
CCRF-CEM = tested on: CCRF-CEM
RPMI-8226 = tested on: RPMI-8226
LOX IMVI = tested on: LOX IMVI
NCI-H226 = tested on: NCI-H226
MCF7 = tested on: MCF7
NCI/ADR-RES = tested on: NCI/ADR-RES
OVCAR-8 = tested on: OVCAR-8
SR = tested on: SR
COLO 205 = tested on: COLO 205
MOLT-4 = tested on: MOLT-4
SF-295 = tested on: SF-295
K562 = tested on: K562
UO-31 = tested on: UO-31
HT-29 = tested on: HT-29
A498 = tested on: A498
MDA-N = tested on: MDA-N
UACC-62 = tested on: UACC-62
SNB-19 = tested on: SNB-19
NCI-H522 = tested on: NCI-H522

SMILES	GI50 (NCI-H460)	GI50 (CCRF-CEM)	GI50 (RPMI-8226)	GI50 (LOX IMVI)	GI50 (NCI-H226)	GI50 (MCF7)	GI50 (NCI/ADR-RES)	GI50 (OVCAR-8)	GI50 (SR)	GI50 (COLO 205)	GI50 (MOLT-4)	GI50 (SF-295)	GI50 (K562)	GI50 (UO-31)	GI50 (HT-29)	GI50 (A498)	GI50 (MDA-N)	GI50 (UACC-62)	GI50 (SNB-19)	GI50 (NCI-H522)
Cc1cc(O)nc(NN2C(Cl)C(=O)C2c2ccccc2O)n1 (centres undefined)	0.726 µM (active)	0.547 µM (active)	3.06 µM (inactive)	1.02 µM (active)	2.39 µM (inactive)	2.48 µM (inactive)	1.54 µM (inactive)	2.66 µM (inactive)	0.796 µM (active)	12.1 µM (inactive)	0.585 µM (active)	2.76 µM (inactive)	1.08 µM (active)	2.06 µM (inactive)	8.39 µM (inactive)	12.2 µM (inactive)	4.36 µM (inactive)	1.6 µM (inactive)	5.85 µM (inactive)	–
COCc1nc2c(OC)c(-c3nc4ccc(N5CCN(C)CC5)nc4[nH]3)cc(OC)c2[nH]1	35.3 µM (inactive)	21.2 µM (inactive)	–	30.8 µM (inactive)	> 100 µM (inactive)	40.5 µM (inactive)	> 100 µM (inactive)	82.6 µM (inactive)	32.9 µM (inactive)	37.5 µM (inactive)	37.1 µM (inactive)	31.6 µM (inactive)	25.4 µM (inactive)	56.2 µM (inactive)	31 µM (inactive)	> 100 µM (inactive)	73.3 µM (inactive)	> 100 µM (inactive)	48 µM (inactive)	37.7 µM (inactive)
OC1(c2ccccc2)CC2CCC(C1)N2CCCC1(c2ccc(F)cc2)OCCO1 (centres undefined)	–	3.66 µM (inactive)	61.4 µM (inactive)	> 100 µM (inactive)	–	> 100 µM (inactive)	15.6 µM (inactive)	16.3 µM (inactive)	27.3 µM (inactive)	69.8 µM (inactive)	47.2 µM (inactive)	3.26 µM (inactive)	> 100 µM (inactive)	54.3 µM (inactive)	36.5 µM (inactive)	> 100 µM (inactive)	> 100 µM (inactive)	> 100 µM (inactive)	–	> 100 µM (inactive)
Cc1ncn(-c2ccccc2O)c1C	–	> 100 µM (inactive)	> 100 µM (inactive)	> 100 µM (inactive)	> 100 µM (inactive)	> 100 µM (inactive)	> 100 µM (inactive)	> 100 µM (inactive)	> 100 µM (inactive)	> 100 µM (inactive)	> 100 µM (inactive)	55.5 µM (inactive)	> 100 µM (inactive)	> 100 µM (inactive)	> 100 µM (inactive)	> 100 µM (inactive)	> 100 µM (inactive)	> 100 µM (inactive)	> 100 µM (inactive)	> 100 µM (inactive)
CCCC1C(=O)Nc2cccc3ncn(c23)C1=O (centres undefined)	> 100 µM (inactive)	> 100 µM (inactive)	> 100 µM (inactive)	–	> 100 µM (inactive)	> 100 µM (inactive)	> 100 µM (inactive)	> 100 µM (inactive)	> 100 µM (inactive)	> 100 µM (inactive)	> 100 µM (inactive)	> 100 µM (inactive)	> 100 µM (inactive)	> 100 µM (inactive)	> 100 µM (inactive)	> 100 µM (inactive)	> 100 µM (inactive)	> 100 µM (inactive)	> 100 µM (inactive)	–
O=C1CC(=O)c2c(Cl)sc(Cl)c21	> 100 µM (inactive)	37.2 µM (inactive)	–	52.8 µM (inactive)	86.1 µM (inactive)	45.5 µM (inactive)	> 100 µM (inactive)	52.2 µM (inactive)	25.6 µM (inactive)	> 100 µM (inactive)	34.1 µM (inactive)	> 100 µM (inactive)	40.9 µM (inactive)	> 100 µM (inactive)	> 100 µM (inactive)	> 100 µM (inactive)	> 100 µM (inactive)	92.3 µM (inactive)	–	23.8 µM (inactive)
CC(=O)Oc1c(C)c2c(c3ncccc13)OC(C)C2 (centres undefined)	10.8 µM (inactive)	6.37 µM (inactive)	16.7 µM (inactive)	–	16.4 µM (inactive)	13.3 µM (inactive)	15.6 µM (inactive)	14.5 µM (inactive)	3.63 µM (inactive)	19.4 µM (inactive)	6.41 µM (inactive)	14.7 µM (inactive)	10.2 µM (inactive)	14.8 µM (inactive)	18.8 µM (inactive)	20 µM (inactive)	11 µM (inactive)	12.2 µM (inactive)	34 µM (inactive)	4.29 µM (inactive)
Nc1ccc(Oc2ccc(C34CC5CC(C3)CC(c3ccc(Oc6ccc(N)c(O)c6)cc3)(C5)C4)cc2)cc1O	1.75 µM (inactive)	–	2.54 µM (inactive)	1.69 µM (inactive)	3.1 µM (inactive)	2.49 µM (inactive)	2.32 µM (inactive)	1.7 µM (inactive)	0.424 µM (active)	1.52 µM (inactive)	2.48 µM (inactive)	2.31 µM (inactive)	3.3 µM (inactive)	1.77 µM (inactive)	2.05 µM (inactive)	7.66 µM (inactive)	1.95 µM (inactive)	2.25 µM (inactive)	1.52 µM (inactive)	1.54 µM (inactive)
CN(C)S(=O)(=O)c1ccc(Nc2ccc(O)c3c2C(=O)c2c([N+](=O)[O-])ccc(O)c2C3=O)cc1	> 100 µM (inactive)	4.39 µM (inactive)	> 100 µM (inactive)	64.7 µM (inactive)	–	> 100 µM (inactive)	> 100 µM (inactive)	> 100 µM (inactive)	54.2 µM (inactive)	65.8 µM (inactive)	35.5 µM (inactive)	> 100 µM (inactive)	> 100 µM (inactive)	> 100 µM (inactive)	> 100 µM (inactive)	> 100 µM (inactive)	> 100 µM (inactive)	> 100 µM (inactive)	> 100 µM (inactive)	52.8 µM (inactive)
CCOc1ccccc1/N=N/C1C(=O)N(C(=O)CC(=O)Nc2ccccc2Cl)N=C1C (centres undefined)	40.2 µM (inactive)	68.7 µM (inactive)	27.2 µM (inactive)	43.7 µM (inactive)	> 100 µM (inactive)	> 100 µM (inactive)	89.3 µM (inactive)	88.3 µM (inactive)	78.7 µM (inactive)	> 100 µM (inactive)	> 100 µM (inactive)	37.6 µM (inactive)	–	47.4 µM (inactive)	> 100 µM (inactive)	50.1 µM (inactive)	> 100 µM (inactive)	56 µM (inactive)	–	> 100 µM (inactive)
C[N+](C)(C)c1ccc(C(N)C(=O)O)cc1 (centres undefined)	> 100 µM (inactive)	> 100 µM (inactive)	> 100 µM (inactive)	> 100 µM (inactive)	> 100 µM (inactive)	> 100 µM (inactive)	> 100 µM (inactive)	> 100 µM (inactive)	> 100 µM (inactive)	> 100 µM (inactive)	–	> 100 µM (inactive)	> 100 µM (inactive)	> 100 µM (inactive)	> 100 µM (inactive)	> 100 µM (inactive)	> 100 µM (inactive)	> 100 µM (inactive)	> 100 µM (inactive)	> 100 µM (inactive)

Source: ChEMBL document CHEMBL1201862, “PubChem BioAssay data set” (2004)
